These results are taken from patent US20170216297A1, “EFFICIENT INHIBITION OF HSP27” (TECHNISCHE UNIVERSITAET DRESDEN, priority 2014, published 2017).

Assay [1] concerns the target T1, HSP27 (Homo sapiens, UniProt P04792). Briefly: SpeedScreen gel filtration binding test (Sephadex G-25, detection by mass spectroscopy). The source says: For the experimental validation of low-molecular-weight compounds which act as potential HSP27 inhibitors according to the in silico prediction, a method based on gel filtration was employed. The method for detecting molecular bonds using gel filtration was described in 2004 as “SpeedScreen” [Muckenschnabel et al., 2004] and was adapted to meet the requirements of the invention. […] For the separation, PD SpinTraps G-25 from GE Healthcare were used. During the 2-minute centrifugation at 800×g (according to operating instructions), these columns allow molecules with a molecular weight of greater than or equal to 5000 g/mol to pass through, while smaller molecules are retained in the matrix. The target protein HSP27 has a molecular weight of 27000 g/mol and therefore passes through the matrix. […] Non-bound low-molecular-weight compounds are retained by the matrix. Molecules that have passed through the matrix can then be detected by mass spectroscopy. This enables “binders” to be differentiated from “non-binders”. For the experimental validation of low-molecular-weight compounds which act as potential HSP27 inhibitors according to the in silico prediction, a method based on gel filtration was employed. […] Molecules that have passed through the matrix can then be detected by mass spectroscopy. […]

Assay [2] addresses T1, HSP27. Kind of assay: Bio-layer interferometry (ForteBio Octet Red 384, biotinylated HSP27 on SSA sensors). The following applies: bio-layer interferometry; read-out: KD. In kind it is binding. The source says: Bio-layer interferometry is a technique for detecting biomolecular interactions. It is an analytical technique that measures the optical interference of white light which is reflected by two surfaces: in each case, one surface consists of a layer of the immobilized target protein on the tip of the biosensor and one is an internal reference surface. The binding of ligands to the target protein alters the interference pattern and can be measured in real time.
For the measurements, an instrument of the ForteBio Octet Red 384 brand was used. The target protein HSP27 was biotinylated and bound to the appropriate sensors (SSA). […] The purine derivatives of general formula (I) or (II) pre-identified by means of in silico screening are employed for these measurements in a concentration range (KD) of between 333 μmol/L and 10 nmol/L.
For measurements by bio-layer interferometry, biotinylated HSP27 protein was first bound to Super-Streptavidin sensors (SSA, Fortebio). The loaded sensors were then incubated (“quenched”) with biocytin. As reference, unloaded SSA sensors were incubated with biocytin. In the case of a specific binding to HSP27 of the analyte to be measured, the loaded HSP27 sensor generates a stronger signal (response) than the concurrent reference sensor. After the “baseline” has been established by incubation with the reaction buffer (PBST 0.1% Tween 20 plus 3% DMSO), first the association and then the dissociation of the respective analyte is measured in real time. The analytes were measured in increasing concentrations in each case: 1.23-3.7-11.11-33.33-100-300 μM/l.

Assay [3] has as its target T1, HSP27. Kind of assay: Capillary electrophoresis of the CS protein precipitates (precipitated citrate synthase as measure of HSP27 inhibition). In kind it is biochemical. As to conditions: 10 μmol/L; 43° C. for 120 minutes; 750 μmol/L BVDU set at 1. On the procedure: Since the heat-denatured protein aggregates of the citrate synthase from Example 1 are not water-soluble, these can be separated completely from the supernatant by means of centrifugation at room temperature at 16,000×g, 10 min. By using capillary electrophoresis, the compositions of the separated precipitates can be shown and quantified. The relative quantity of protein of precipitated citrate synthase serves as a measure of the efficacy of the test substances.
In each case, 481 nmol/L HSP27 and 1.44 μmol/L citrate synthase in 40 mmol/L HEPES buffer, pH 7.4, were employed. The relative quantity of protein of the precipitated citrate synthase in each case was normalized using a defined quantity of BSA as internal standard. The relative quantity of protein that precipitated when using 750 μmol/L BVDU was set at 1. The other test substances (2 representatives of phenothiazine derivatives of general formula (V), 2 representatives of purine derivatives of formula (I) or (II)) were each employed at a concentration of 10 μmol/L.
Since the heat-denatured protein aggregates of the citrate synthase from Example 2 are not water-soluble, these can be separated completely from the supernatant by means of centrifugation at room temperature at 16,000×g, 10 min. By using capillary electrophoresis, the compositions of the separated precipitates can be shown and quantified. The relative quantity of protein of precipitated citrate synthase serves as a measure of the efficacy of the test substances.
In each case, 481 nM HSP27 and 1.44 μmol/L citrate synthase in 40 mmol/L HEPES buffer, pH 7.4, were employed. The relative quantity of protein of the precipitated citrate synthase in each case was normalized using a defined quantity of BSA as internal standard. The relative quantity of protein that precipitated when using 750 μmol/L BVDU was set at 1. The other test substances (2 representatives of phenothiazine derivatives of general formula (V), 2 representatives of thymine derivatives of formula (I) or (II)) were employed at a concentration of 10 μmol/L in each case.
Otherwise, the experiments were performed as described above: […]

T1 sequence (P04792 whole entry): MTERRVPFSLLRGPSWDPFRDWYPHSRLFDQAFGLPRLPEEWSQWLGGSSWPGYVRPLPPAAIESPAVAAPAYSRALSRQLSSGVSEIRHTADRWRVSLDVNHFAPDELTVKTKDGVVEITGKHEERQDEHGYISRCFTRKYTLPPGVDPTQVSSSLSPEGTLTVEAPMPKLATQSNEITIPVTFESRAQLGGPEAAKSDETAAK

As for `CC(=O)c1ccc2c(c1)N(CCCN(C)C)c1ccccc1S2` [Acepromazine], on HSP27 [1], the “Binding to HSP27 by SpeedScreen (passage through the Sephadex G-25 matrix)” value is on record as “tested positively”. In addition, the Kd at HSP27 [2] was determined as 72 µM. Further, the “Rel. quantity of protein prec. CS” value on HSP27 [3] worked out at 0.99.
